{
  "source": "patent USRE38863E1",
  "about": "“Chemotaxis assay procedure” (priority 1995, dated 2005)",
  "tested_on": "HL-60 cells",
  "assay": "Chemotaxis assay: fluorescence of Di-I labeled cells migrated across radiation opaque membrane",
  "type": "cell-based",
  "experimental": "The cell line HL-60 (ATCC No. CCL 240) was maintained in logarithmic growth phase as a suspension culture at about 10^6 cells/mL. in RPMI 1640 medium (Mediatech Cellgrow, Fisher Scientific, Pittsburgh, PA.) supplemented with 20% (volume by volume) fetal bovine serum. (Hyclone Laboratories, Salt Lake City, UT). The cells were differentiated into mature myelocytes and neutrophils by incubating the cells for 48 hours at 37° C. in media containing 1.5% (volume by volume) dimethylsulfoxide.\nFollowing the treatment with dimethylsulfoxide, the cells were incubated with 50 μM Di-I fluorescent dye (Molecular Probes, Inc., Eugene, OR) at room temperature for 0.5-2 hours. The cells were then washed with Hanks' Balanced Salt Solution (“HBSS”) (Sigma Chemical Co., St. Louis, MO.) and re-suspended in HBSS to achieve a cell concentration of 10^6 cells/mL. The fluorescence of 0.5 mL. of cell suspension was measured in a Cytofluor™ 2300 fluorescent plate reader (Millipore Corp., Marlborough, MA.).\nMembrane 1: Polycarbonate film having a plurality of pores of 8 μm diameter were coated with four molecular layers of carbon and one layer of an admixture of gold and palladium in a vacuum evaporator. […] 6 mm disks of the radiation opaque membrane were glued to the bottom of inserts similar to the Millicell HA-12 mm (Millipore Corp.) or the Transwell-6.5 mm (Costar Corp., Cambridge, MA.) inserts with clear silicone rubber cement.\nMembrane 2: A non-porous polyester film (18 μm thick) containing a blue dye (Aquired Technology Inc., Alpharetta, GA.) was subjected to atomic etching to produce a 10 μm thick radiation opaque membrane containing a plurality of pores of 8 μm diameter having a combined radiation blocking efficiency of approximately 99%. 6 mm disks of the radiation opaque membrane were glued to the bottoms of inserts as with membrane 1.\nEach insert equipped with the either membrane 1 or membrane 2 were placed in a well of a 24-well culture plate (Falcon, Fisher Scientific). 0.5 mL of labeled cell suspension was placed inside each insert. The plate was incubated for 30 minutes at 37° C. to allow the cells to settle on the radiation opaque membrane. The fluorescence of each well was then measured with the Cytofluor™ 2300 to obtain a zero time reading. 0.5 mL of either N-formyl methionyl leucyl phenylalanine (“f-MLP”) (Sigma Chemical Co.) or HBBS was then added to each well. The fluorescence in each well was then measured at periodic time intervals using the Cytofluor™ 2300 at sensitivity setting 4. Results using membrane 1 are reported in Tables 1 and 2 and graphically illustrated in FIGS. 4 and 5. Results using membrane 2 are reported in Table 3 and graphically illustrated in FIGS. 6 and 7.",
  "key": {"[1]": {"settings": "membrane 1, f-MLP/f-MLP (f-MLP also added to cell suspension immediately before start), 10^−7 M"}, "[2]": {"settings": "membrane 1, insert/well HBSS/f-MLP, f-MLP Conc. = 10^−8 M"}, "[3]": {"settings": "membrane 1, insert/well f-MLP/f-MLP (f-MLP added to cell suspension immediately before start), 10^−8 M"}, "[4]": {"settings": "membrane 1, test solutions well/insert HBSS/f-MLP, f-MLP Conc. = 10^−7 M"}, "[5]": {"settings": "membrane 2, Millicell-type insert, well 20: Insert leaked, insert/well HBSS/f-MLP, 2 × 10^−8 M"}, "[6]": {"settings": "membrane 2, Millicell-type inserts, insert/well HBSS/f-MLP, f-MLP Conc. = 2 × 10^−8 M"}, "[7]": {"settings": "membrane 2, Millicell-type inserts, insert/well f-MLP/f-MLP (f-MLP added to cell suspension immediately before start), 2 × 10^−8 M"}, "[8]": {"settings": "membrane 2, Transwell-type inserts, insert/well HBSS/f-MLP, f-MLP Conc. = 2 × 10^−8 M"}, "[9]": {"settings": "membrane 2, Transwell-type inserts, insert/well f-MLP/f-MLP (f-MLP added to cell suspension immediately before start), 2 × 10^−8 M"}},
  "note": "Where “and” joins values, the source holds several entries; their conditions need not be identical. Equal entries are not always repeated.",
  "data": [
    {"smiles": "CSCC[C@H](NC=O)C(=O)N[C@@H](CC(C)C)C(=O)N[C@@H](Cc1ccccc1)C(=O)O", "note": "[f-MLP, N-formyl methionyl leucyl phenylalanine]", "values": [
      {"measurement": "Fluorescence 0 hr.", "setting": "membrane 1, f-MLP/f-MLP (f-MLP also added to cell suspension immediately before start), 10^−7 M, 0 hr.", "result": 706},
      {"measurement": "Fluorescence 1 hr.", "setting": "[1]", "result": 654},
      {"measurement": "Fluorescence 2 hr.", "setting": "[1]", "result": 708},
      {"measurement": "Fluorescence 3 hr.", "setting": "[1]", "result": 732},
      {"measurement": "Fluorescence 4 hr.", "setting": "[1]", "result": 728},
      {"measurement": "Fluorescence 5 hr.", "setting": "[1]", "result": 753},
      {"measurement": "FLUORESCENCE 0 min.", "setting": "membrane 1, insert/well HBSS/f-MLP, f-MLP Conc. = 10^−8 M, 0 min. (zero time reading)", "result": "2515 and 2927 and 2895 and 2631 and 2594"},
      {"measurement": "FLUORESCENCE 15 min.", "setting": "[2]", "result": "3388 and 4195 and 4165 and 3398 and 3446"},
      {"measurement": "FLUORESCENCE 30 min.", "setting": "[2]", "result": "3594 and 4475 and 4400 and 3584 and 3707"},
      {"measurement": "FLUORESCENCE 60 min.", "setting": "[2]", "result": "3614 and 4642 and 4539 and 3645 and 3813"},
      {"measurement": "FLUORESCENCE 90 min.", "setting": "[2]", "result": "3717 and 4761 and 4642 and 3728 and 3932"},
      {"measurement": "FLUORESCENCE 150 min.", "setting": "[2]", "result": "3770 and 4788 and 4655 and 3728 and 3999"},
      {"measurement": "FLUORESCENCE 0 min.", "setting": "membrane 1, insert/well f-MLP/f-MLP (f-MLP added to cell suspension immediately before start), 10^−8 M, 0 min.", "result": 2854},
      {"measurement": "FLUORESCENCE 15 min.", "setting": "[3]", "result": 2675},
      {"measurement": "FLUORESCENCE 30 min.", "setting": "[3]", "result": 2721},
      {"measurement": "FLUORESCENCE 60 min.", "setting": "[3]", "result": 2721},
      {"measurement": "FLUORESCENCE 90 min.", "setting": "[3]", "result": 2783},
      {"measurement": "FLUORESCENCE 150 min.", "setting": "[3]", "result": 2783},
      {"measurement": "Fluorescence 0 hr.", "setting": "membrane 1, test solutions well/insert HBSS/f-MLP, f-MLP Conc. = 10^−7 M, 0 hr. (zero time reading)", "result": 383},
      {"measurement": "Fluorescence 1 hr.", "setting": "[4]", "result": 1046},
      {"measurement": "Fluorescence 2 hr.", "setting": "[4]", "result": 1355},
      {"measurement": "Fluorescence 3 hr.", "setting": "[4]", "result": 1433},
      {"measurement": "Fluorescence 4 hr.", "setting": "[4]", "result": 1370},
      {"measurement": "Fluorescence 5 hr.", "setting": "[4]", "result": 1359},
      {"measurement": "Fluorescence 0 hr.", "setting": "membrane 2, Millicell-type insert, well 20: Insert leaked, insert/well HBSS/f-MLP, 2 × 10^−8 M, 0 hr.", "result": 1228},
      {"measurement": "Fluorescence 0.5 hr.", "setting": "[5]", "result": 5928},
      {"measurement": "Fluorescence 1 hr.", "setting": "[5]", "result": 6063},
      {"measurement": "Fluorescence 2 hr.", "setting": "[5]", "result": 6342},
      {"measurement": "Fluorescence 3 hr.", "setting": "[5]", "result": 6504},
      {"measurement": "Fluorescence 0 hr.", "setting": "membrane 2, Millicell-type inserts, insert/well HBSS/f-MLP, f-MLP Conc. = 2 × 10^−8 M, 0 hr. (zero time reading)", "result": "1277 and 1242"},
      {"measurement": "Fluorescence 0.5 hr.", "setting": "[6]", "result": "1573 and 1207"},
      {"measurement": "Fluorescence 1 hr.", "setting": "[6]", "result": "1701 and 1830"},
      {"measurement": "Fluorescence 2 hr.", "setting": "[6]", "result": "1836 and 1931"},
      {"measurement": "Fluorescence 3 hr.", "setting": "[6]", "result": "1851 and 1969"},
      {"measurement": "Fluorescence 0 hr.", "setting": "membrane 2, Millicell-type inserts, insert/well f-MLP/f-MLP (f-MLP added to cell suspension immediately before start), 2 × 10^−8 M, 0 hr.", "result": "1187 and 1231"},
      {"measurement": "Fluorescence 0.5 hr.", "setting": "[7]", "result": "1181 and 1325"},
      {"measurement": "Fluorescence 1 hr.", "setting": "[7]", "result": "1516 and 1454"},
      {"measurement": "Fluorescence 2 hr.", "setting": "[7]", "result": "1622 and 1541"},
      {"measurement": "Fluorescence 3 hr.", "setting": "[7]", "result": "1673 and 1604"},
      {"measurement": "Fluorescence 0 hr.", "setting": "membrane 2, Transwell-type inserts, insert/well HBSS/f-MLP, f-MLP Conc. = 2 × 10^−8 M, 0 hr. (zero time reading)", "result": "1055 and 1064 and 1097"},
      {"measurement": "Fluorescence 0.5 hr.", "setting": "[8]", "result": "1770 and 1454 and 1775"},
      {"measurement": "Fluorescence 1 hr.", "setting": "[8]", "result": "2066 and 1846 and 2185"},
      {"measurement": "Fluorescence 2 hr.", "setting": "[8]", "result": "2351 and 2143 and 2411"},
      {"measurement": "Fluorescence 3 hr.", "setting": "[8]", "result": "2536 and 2292 and 2432"},
      {"measurement": "Fluorescence 0 hr.", "setting": "membrane 2, Transwell-type inserts, insert/well f-MLP/f-MLP (f-MLP added to cell suspension immediately before start), 2 × 10^−8 M, 0 hr.", "result": "1049 and 961"},
      {"measurement": "Fluorescence 0.5 hr.", "setting": "[9]", "result": "1277 and 1245"},
      {"measurement": "Fluorescence 1 hr.", "setting": "[9]", "result": "1413 and 1390"},
      {"measurement": "Fluorescence 2 hr.", "setting": "[9]", "result": "1538 and 1564"},
      {"measurement": "Fluorescence 3 hr.", "setting": "[9]", "result": "1582 and 1711"}
    ]}
  ]
}
